Reference: US9387197B2, “Methods for treating conditions such as dystonia and post-stroke spasticity with clonidine” (Warsaw Orthopedic, Inc., priority 2008, dated 2016)

Tested on: Rat Chronic Constriction Injury Model
Conditions: FIG. 4; days 8-64
Method: A 2-month chronic constriction injury (CCI) model of neuropathic pain was used to evaluate different formulations of clonidine encapsulated in bioerodible polymers compared to clonidine given subcutaneously (SC). Different formulations as provided in Table 5 below were evaluated for reducing pain-associated behaviors: Thermal paw withdrawal latency was evaluated at baseline, 7, 14, 21, 28, 35, 42, 49, 56 and 64 days post-operatively, while mechanical threshold was evaluated at 8, 15, 22, 29, 36, 43, 50, 57 and 64 days post-operatively.
The inventors evaluated the efficacy of a five month Clonidine/Polymer Drug Depot in the Rat Chronic Constriction Injury Model. The animal model was the Bennett Model (Wistar rat). The purpose: To determine whether a five month polymer clonidine-eluting depot can improve pain associated behavioral responses in a rat model of neuropathic pain.
Experimental Design: Four loose chromic gut ligatures, 1 mm apart, were tied around the common sciatic nerve at mid-thigh. Each animal received treatment of a test or control article according to the dosing described in Table 5.
The inventors have conducted the present study for a period of 64 days and have employed the following two tests: (1) the Hargreaves test; and (2) the von Frey test. […]

Question: How did the “pain behavioral response, mechanical threshold (mechanical allodynia), compared to unloaded polymer depots” value turn out when `Clc1cccc(Cl)c1N=C1NCCN1` [clonidine, 2,6-dichloro-N-2-imidazolidinyldenebenzenamine] was run?
Answer: reduced the behavioral response
